The values below come from patent US8951993B2, “Phosphorus containing compounds as protein kinase inhibitors” (Jiangsu Hansoh Pharmaceutical Co., Ltd., priority 2011, dated 2015).

SMILES strings stand for the structures. Where two headings read alike, the source gives them in different places.

One series has as its system Karpas299. The experiment in a line: Cell proliferation assay (MTS / BrdU), Karpas299. Conditions: Homo sapiens, KARPAS-299; 72 hours, 2% FBS. In kind it is cell-based. As to the method:
(§1) Karpas299 and SU-DHL-1 cells were purchased from Deutsche Sammlung von Mikroorganismen and Zellkulturen (Germany). H2228 was purchased from American Type Culture Collection (USA). All cells were cultured in the recommended medium and serum concentration. Cells were maintained at 37° C. in a humidified atmosphere with 5% CO2. For ALK kinase phosphorylation, cells were seeded in 96-well plates overnight in medium supplemented with 10% fetal bovine serum […]. After 24 hours, the medium was removed and cells were cultured in serum-free medium at 37° C. in the presence of various concentrations of the test articles for 1 hour. After incubation with the tested articles, cells were washed once with HBSS supplemented with 1 mM Na3VO4 and protein lysates were generated. Subsequently, phosphorylation of ALK was assessed by a sandwich ELISA method using an immobilized anti-total-ALK antibody and an anti-phospho-ALK antibody (pY1604) as a detection antibody. IC50 value was calculated using median-effect method. (Chou 2006).
(§2) For cell proliferation assay, cells were seeded in 96-well pates at low density at 37° C. in medium supplemented with 10% FBS and after 24 hours were switched to low serum medium (2% FBS). Cells were further incubated in the presence of the test articles at various concentrations at 37° C. for 72 hours. Two assays were employed to determine the relative cell numbers. One is a 3-(4,5-dimethylthiazol-2-yl)-5-(3-carboxymethoxyphenyl)-2-(4-sulfophenyl)-2H-tetrazolium (MTS) assay using a CellTiter 96® Aqueous Non-Radioactive Cell Proliferation kit (Promega), and the other is a BrdU incorporation assay using a DELFIA® Cell Proliferation Kit (Perkin Elmer). IC50 value was calculated using median-effect method (Chou 2006).

In series [1] the target is T1, ALK (Homo sapiens, UniProt Q9UM73). The series can be described thus: ALK enzyme activity assay (HTRF KinEASE). In kind it is biochemical. Further details: purchased Millipore Company (Billerica, Mass., USA). Conditions: ATP 25 μM, 30° C. 30 minutes. As to the method: ALK Enzyme Activity Assay:
ALK kinase was purchased from Millipore Company (Billerica, Mass., USA). HTRF®KinEASET™ was purchased from Cisbio Company (Bedford, Mass., USA). The assay was conducted according to the procedure provided in the assay kit. In brief, incubation was carried out in the kinase buffer containing ALK (0.3 ng/μL), ATP (25 μM), TK substrate-biotin (10 μM), DTT (1 mM), MgCl2 (5 mM), MnCl2 (5 mM) in the presence of the tested articles at various concentrations in 384-well plate at 30° C. for 30 minutes. The reaction was stopped by addition of Sa-XL665 in EDTA solution, and the phosphorylated substrate was detected with a proprietary phospho-specific monoclonal antibody labeled with Eu^3+-Cryptate and a proprietary biotinylated kinase substrate detected using XL665 labeled streptavidin. IC50 value was calculated using median-effect method (Chou 2006).
Target sequence in this assay (Q9UM73 19-1620): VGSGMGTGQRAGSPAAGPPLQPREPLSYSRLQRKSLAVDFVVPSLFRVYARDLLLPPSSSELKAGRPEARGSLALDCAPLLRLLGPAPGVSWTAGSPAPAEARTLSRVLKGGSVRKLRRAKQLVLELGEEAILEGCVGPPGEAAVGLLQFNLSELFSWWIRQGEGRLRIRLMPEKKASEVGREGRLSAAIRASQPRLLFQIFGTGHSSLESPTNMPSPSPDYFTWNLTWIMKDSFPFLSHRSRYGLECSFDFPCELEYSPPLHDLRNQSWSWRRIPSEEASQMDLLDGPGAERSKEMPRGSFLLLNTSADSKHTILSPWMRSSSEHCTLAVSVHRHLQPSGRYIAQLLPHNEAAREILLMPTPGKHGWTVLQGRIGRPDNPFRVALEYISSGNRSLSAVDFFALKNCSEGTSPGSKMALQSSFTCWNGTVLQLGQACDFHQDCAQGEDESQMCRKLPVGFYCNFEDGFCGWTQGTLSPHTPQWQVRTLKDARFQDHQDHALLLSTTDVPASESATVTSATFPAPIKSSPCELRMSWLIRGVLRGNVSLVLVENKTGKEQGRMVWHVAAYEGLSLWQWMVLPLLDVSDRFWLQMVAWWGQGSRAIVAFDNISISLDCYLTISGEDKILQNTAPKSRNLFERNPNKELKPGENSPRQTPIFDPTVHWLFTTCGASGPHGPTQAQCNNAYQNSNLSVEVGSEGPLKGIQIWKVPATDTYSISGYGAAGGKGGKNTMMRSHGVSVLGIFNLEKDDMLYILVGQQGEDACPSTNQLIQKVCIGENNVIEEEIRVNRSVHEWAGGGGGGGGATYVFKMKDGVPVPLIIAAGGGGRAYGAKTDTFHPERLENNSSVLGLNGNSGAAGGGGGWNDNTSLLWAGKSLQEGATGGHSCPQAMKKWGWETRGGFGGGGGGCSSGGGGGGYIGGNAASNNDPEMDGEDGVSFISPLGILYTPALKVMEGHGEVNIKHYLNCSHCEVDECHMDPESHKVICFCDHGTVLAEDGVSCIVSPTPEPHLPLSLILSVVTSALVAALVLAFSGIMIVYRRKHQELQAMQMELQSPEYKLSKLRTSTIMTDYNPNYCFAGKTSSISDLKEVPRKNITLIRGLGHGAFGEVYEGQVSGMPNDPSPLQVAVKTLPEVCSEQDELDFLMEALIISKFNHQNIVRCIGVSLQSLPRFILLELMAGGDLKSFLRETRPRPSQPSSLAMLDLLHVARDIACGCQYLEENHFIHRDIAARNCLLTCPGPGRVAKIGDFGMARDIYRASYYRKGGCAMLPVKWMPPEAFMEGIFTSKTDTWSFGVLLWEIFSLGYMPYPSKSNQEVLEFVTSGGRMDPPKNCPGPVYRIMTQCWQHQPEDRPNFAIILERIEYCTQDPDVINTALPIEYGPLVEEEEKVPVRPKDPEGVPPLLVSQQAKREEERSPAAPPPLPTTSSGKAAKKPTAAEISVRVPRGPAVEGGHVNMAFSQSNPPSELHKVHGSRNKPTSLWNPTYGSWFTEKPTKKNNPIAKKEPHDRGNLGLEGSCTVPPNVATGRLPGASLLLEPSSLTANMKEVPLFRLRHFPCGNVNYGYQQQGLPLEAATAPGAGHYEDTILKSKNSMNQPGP

Series [2] deals with T1, ALK. The experiment in a line: Inhibition of ALK phosphorylation (sandwich ELISA, pY1604), cell line not given. In kind it is cell-based. Set-up: fused on or other part: Q9HC35 (Echinoderm microtubule-associated protein-like 4). Conditions: 1 hour, serum-free. On the procedure:
as §1
Target sequence in this assay (Q9UM73 1058-1620 limits assumed): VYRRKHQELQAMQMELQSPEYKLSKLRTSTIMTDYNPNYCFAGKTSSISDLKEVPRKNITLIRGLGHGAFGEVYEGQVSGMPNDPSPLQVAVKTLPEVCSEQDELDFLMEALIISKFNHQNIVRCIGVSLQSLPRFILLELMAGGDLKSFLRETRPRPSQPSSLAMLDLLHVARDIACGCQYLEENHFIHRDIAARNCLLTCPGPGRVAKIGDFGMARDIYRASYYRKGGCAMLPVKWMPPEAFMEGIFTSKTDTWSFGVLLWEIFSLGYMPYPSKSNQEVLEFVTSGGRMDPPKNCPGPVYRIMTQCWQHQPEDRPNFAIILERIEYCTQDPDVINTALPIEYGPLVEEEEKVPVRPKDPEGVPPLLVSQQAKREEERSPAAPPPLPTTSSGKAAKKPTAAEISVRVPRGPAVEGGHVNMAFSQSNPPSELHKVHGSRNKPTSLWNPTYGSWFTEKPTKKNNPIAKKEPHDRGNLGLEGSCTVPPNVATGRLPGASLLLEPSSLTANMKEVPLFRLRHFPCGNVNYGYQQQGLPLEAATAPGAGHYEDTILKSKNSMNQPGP

The subject of another series is SU-DHL-1. The series can be described thus: Cell proliferation assay (MTS / BrdU), SU-DHL-1. In kind it is cell-based. To be noted: Homo sapiens, 72 hours, 2% FBS. As to the method: as §1, §2
For series [3], the target named is T1, ALK. The experiment in a line: Inhibition of ALK phosphorylation (sandwich ELISA, pY1604) in Karpas299 cells. In kind it is cell-based. Further details: NPM1 portion (fusion partner, nucleophosmin, P06748); host or cells: Karpas299; SU-DHL-1; the other entry of the earlier key: NPM1 (P06748, Nucleophosmin). Conditions: 1 hour, serum-free. As to the method: as §1
Target sequence in this assay (Q9UM73 with tags, fused parts or gaps): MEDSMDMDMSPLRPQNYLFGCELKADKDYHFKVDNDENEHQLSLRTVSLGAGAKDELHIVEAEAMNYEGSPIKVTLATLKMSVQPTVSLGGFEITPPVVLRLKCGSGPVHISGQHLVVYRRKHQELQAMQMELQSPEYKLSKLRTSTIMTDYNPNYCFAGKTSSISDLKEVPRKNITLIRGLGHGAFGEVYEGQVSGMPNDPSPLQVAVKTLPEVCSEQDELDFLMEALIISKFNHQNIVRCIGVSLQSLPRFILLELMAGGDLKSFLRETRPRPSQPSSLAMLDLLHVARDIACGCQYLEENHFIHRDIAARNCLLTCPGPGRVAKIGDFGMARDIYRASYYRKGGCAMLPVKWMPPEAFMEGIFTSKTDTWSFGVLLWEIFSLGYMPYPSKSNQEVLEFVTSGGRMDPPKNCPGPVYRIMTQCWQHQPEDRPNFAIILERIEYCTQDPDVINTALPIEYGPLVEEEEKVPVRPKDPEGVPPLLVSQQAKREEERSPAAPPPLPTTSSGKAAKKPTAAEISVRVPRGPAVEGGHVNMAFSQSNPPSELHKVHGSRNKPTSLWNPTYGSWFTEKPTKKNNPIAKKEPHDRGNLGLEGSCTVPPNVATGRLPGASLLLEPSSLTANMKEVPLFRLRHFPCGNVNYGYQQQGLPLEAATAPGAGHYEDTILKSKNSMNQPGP

The nature of series [4]: Pharmacokinetic assay, intravenous and oral administration. In kind it is in vivo, Sprague-Dawley rats or beagle dogs. Conditions: plasma; for half-life: after oral administration in rats or dogs; for bioavailability: oral administration in rats or dogs, read-out: oral bioavailabilty. On the procedure: The tested articles were given to Sprague-Dawley rats or beagle dogs by intravenous and oral administration. Plasma samples were prepared from blood samples which were collected at various time points. The plasma concentrations of the tested articles were determined by specific LC-MS/MS analytical methods. Pharmacokinetic parameters were calculated with WinNonlin®.

The next series relates to H2228. The experiment in a line: Cell proliferation assay (MTS / BrdU), H2228. In kind it is cell-based. To be noted: Homo sapiens, NCI-H2228; 72 hours, 2% FBS. On the procedure:
as §1, §2

Series [5] has as its target T1, ALK. The experiment in a line: Inhibition of ALK phosphorylation (sandwich ELISA, pY1604) in SU-DHL-1 cells. The series is classed as cell-based. Further details: NPM1 portion (fusion partner, nucleophosmin, P06748); host or cells: Karpas299; SU-DHL-1; the other entry of the earlier key: NPM1 (P06748, Nucleophosmin). Conditions: 1 hour, serum-free. As to the method: as §1

Series [6] has as its system lung cancer cell line H2228. The series can be described thus: H2228 xenograft studies in athymic mice. The series is classed as in vivo, athymic mice (nude/nud mouse). From the text:
Xenograft model was developed in athymic mice (nude/nud mouse) with lung cancer cell line H2228 purchased from the American Type Culture Collection Company (Manassas, Va., USA). In brief, H2228 cells (1×10^7) were implanted s.c. into the hind flank region of each mouse and allowed to grow to the designated size (c.a. 150-200 mm^3) before administration of the tested articles. The tested articles were given orally at various dose levels twice daily for 10-14 days. Tumor volume and body weight were measured during the experiments. Tumor regression values were determined using the standard approach.

A further series has as its target T2, ALK mutant R1275Q (Homo sapiens, UniProt Q9UM73, R1275Q).
T2 construct: purchased Carna Biosciences (Chuo-ku, Kobe, Japan)
The experiment in a line: Off-chip mobility shift assay (Carna Biosciences), ALK R1275Q. The series is classed as biochemical. As to the method:
(§3) The activities of ALK wild type, its mutant F1174L, R1275Q, L1196M and EML4-ALK, NPM1-ALK were also determined using off-chip mobility shift assay at Carna Biosciences (Chuo-ku, Kobe, Japan). In brief, 5 μL of ×4 compound solution, 5 μL of ×4 substrate/ATP/metal solution and 10 μL of ×2 kinase solution were prepared with assay buffer (20 mM HEPES, 0.01% Triton X-100, 2 mM DTT, pH 7.5) and mixed and incubated in a well of polypropylene 384 well microplate for 1 or 5 hours (depending on the enzyme). The ATP concentration used in the reaction was 50 μM for ALK wild type, F1174L mutant, EML4-ALK and NPM1-ALK, and 100 μM for R1275Q and 72 μM for L1196M. An aliquot of 60 μL of termination buffer (QuickScout Screening Assist MSA, Carna Biosciences) was added to each well to terminate the reactions. The reaction mixture was applied to LabChip3000 system (Caliper Life Science), and the product and substrate peptide peaks were separated and quantitated. The kinase reaction was evaluated by the product ratio calculated from peak heights of product (P) and substrate (S) peptides (P/(P+S)). IC50 value was calculated from concentration vs. % Inhibition curves by fitting to a four parameter logistic curve.

For the next series, the target named is T3, ALK mutant L1196M (Homo sapiens, UniProt Q9UM73, L1196M).
T3 construct: purchased Carna Biosciences (Chuo-ku, Kobe, Japan)
The series can be described thus: Off-chip mobility shift assay (Carna Biosciences), ALK L1196M. The series is classed as biochemical. On the procedure:
as §3

The target in another series is T4, NPM1-ALK (Homo sapiens, UniProt Q9UM73).
T4 construct: purchased Carna Biosciences (Chuo-ku, Kobe, Japan); the other entry of the earlier key: NPM1 (P06748, Nucleophosmin)
The experiment in a line: Off-chip mobility shift assay (Carna Biosciences), NPM1-ALK. In kind it is biochemical. On the procedure:
as §3

A further series deals with T5, EML4-ALK (Homo sapiens, UniProt Q9UM73).
T5 construct: purchased Carna Biosciences (Chuo-ku, Kobe, Japan); the other entry of the earlier key: EML4 (Q9HC35, Echinoderm microtubule-associated protein-like 4)
The experiment in a line: Off-chip mobility shift assay (Carna Biosciences), EML4-ALK. The series is classed as biochemical. On the procedure: as §3

The target of a further series is T6, ALK mutant F1174L (Homo sapiens, UniProt Q9UM73, F1174L).
T6 construct: purchased Carna Biosciences (Chuo-ku, Kobe, Japan)
The series can be described thus: Off-chip mobility shift assay (Carna Biosciences), ALK F1174L. The series is classed as biochemical. As to the method:
as §3

The next series deals with T7, ALK wild type (Homo sapiens, UniProt Q9UM73).
T7 construct: purchased Carna Biosciences (Chuo-ku, Kobe, Japan)
The experiment in a line: Off-chip mobility shift assay (Carna Biosciences), ALK wild type. The series is classed as biochemical. On the procedure: as §3

T3 sequence (Q9UM73 19-1620 L1196M): as the sequence (Q9UM73 19-1620) above, with L1178M counted along it
T7 sequence (Q9UM73 19-1620): as the sequence (Q9UM73 19-1620) above
T5 sequence (Q9UM73 with tags, fused parts or gaps): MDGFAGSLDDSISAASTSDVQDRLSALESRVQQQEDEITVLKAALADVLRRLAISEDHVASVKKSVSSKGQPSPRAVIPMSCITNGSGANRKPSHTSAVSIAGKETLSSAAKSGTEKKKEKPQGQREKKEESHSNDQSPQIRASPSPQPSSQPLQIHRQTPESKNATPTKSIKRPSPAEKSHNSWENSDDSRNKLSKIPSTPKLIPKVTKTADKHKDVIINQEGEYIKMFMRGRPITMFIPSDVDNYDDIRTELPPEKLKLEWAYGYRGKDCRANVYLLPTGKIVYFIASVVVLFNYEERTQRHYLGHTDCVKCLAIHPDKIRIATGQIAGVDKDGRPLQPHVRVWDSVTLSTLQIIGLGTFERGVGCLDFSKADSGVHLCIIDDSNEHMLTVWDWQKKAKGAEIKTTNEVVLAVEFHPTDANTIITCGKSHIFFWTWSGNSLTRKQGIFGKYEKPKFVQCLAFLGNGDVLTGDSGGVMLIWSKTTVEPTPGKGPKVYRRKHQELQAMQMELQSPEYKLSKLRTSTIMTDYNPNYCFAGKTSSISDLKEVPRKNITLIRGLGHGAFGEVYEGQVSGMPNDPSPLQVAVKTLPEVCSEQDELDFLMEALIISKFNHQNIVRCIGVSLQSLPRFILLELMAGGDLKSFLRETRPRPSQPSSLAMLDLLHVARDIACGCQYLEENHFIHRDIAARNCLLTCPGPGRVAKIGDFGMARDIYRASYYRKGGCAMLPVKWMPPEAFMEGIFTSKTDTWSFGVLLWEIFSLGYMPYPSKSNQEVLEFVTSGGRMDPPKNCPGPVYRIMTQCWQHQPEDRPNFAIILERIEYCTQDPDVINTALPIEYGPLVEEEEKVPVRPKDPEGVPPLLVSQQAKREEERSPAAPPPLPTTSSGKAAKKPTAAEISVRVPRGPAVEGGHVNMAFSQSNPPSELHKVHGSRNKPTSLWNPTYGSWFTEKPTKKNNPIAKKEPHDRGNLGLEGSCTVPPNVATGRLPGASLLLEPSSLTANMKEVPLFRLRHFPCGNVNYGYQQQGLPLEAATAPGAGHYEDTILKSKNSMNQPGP
T2 sequence (Q9UM73 19-1620 R1275Q): as the sequence (Q9UM73 19-1620) above, with R1257Q counted along it
T6 sequence (Q9UM73 19-1620 F1174L): as the sequence (Q9UM73 19-1620) above, with F1156L counted along it

Turning to `CC(Oc1cc(-c2ccc(P(C)(C)=O)cc2)cnc1N)c1c(Cl)ccc(F)c1Cl` (centres unmarked) [Example 1, 3-[1-(2,6-dichloro-3-fluoro-phenyl)ethoxy]-5-(4-dimethylphosphorylphenyl)pyridin-2-amine], the IC50 in the series on Karpas299 is 100 to 500 nM; against ALK [1], 100 to 500 nM; against ALK [2], below 500 nM; in the series with SU-DHL-1, below 100 nM; at ALK [3], below 100 nM; in the series with H2228, below 100 nM. Besides, the half-life in series [4] was above 3 h. Moreover, the bioavailability in series [4] was above 20%.
On to `CC(Oc1cc(-c2cnn(C3CCN(CP(C)(C)=O)CC3)c2)cnc1N)c1c(Cl)ccc(F)c1Cl` (centres unmarked) [Example 2, 3-[1-(2,6-dichloro-3-fluoro-phenyl)ethoxy]-5-[1-[1-(dimethylphosphorylmethyl)-4-piperidyl]pyrazol-4-yl]pyridin-2-amine], for which the values for the 50% inhibitory concentration (IC50) on ALK [1], against ALK [2] and in the series on H2228 were below 100 nM, below 500 nM and 1000 to 5000 nM, respectively.
As for `COc1cc(P(C)(C)=O)ccc1-c1cnc(N)c(OC(C)c2c(Cl)ccc(F)c2Cl)c1` (centres unmarked) [Example 8, 3-[1-(2,6-dichloro-3-fluoro-phenyl)ethoxy]-5-(4-dimethylphosphoryl-2-methoxy-phenyl)pyridin-2-amine], the IC50 is below 100 nM with Karpas299; below 100 nM at ALK [1]; below 100 nM in the series on SU-DHL-1; below 100 nM against ALK [3]; below 50 nM at ALK [5]; below 100 nM with H2228. This compound had a half-life in series [4] above 3 h. In addition, the bioavailability in series [4] was above 20%.
For the compound `C[C@@H](Oc1cc(-c2ccc(P(C)(C)=O)cc2)cnc1N)c1c(Cl)ccc(F)c1Cl` [Example 23, 3-[(1R)-1-(2,6-dichloro-3-fluoro-phenyl)ethoxy]-5-(4-dimethylphosphorylphenyl)pyridin-2-amine], the IC50 was below 100 nM in the series with Karpas299; 100 to 500 nM at ALK [1]; below 50 nM at ALK [2]; below 100 nM with SU-DHL-1; below 100 nM on ALK [3]; below 50 nM on ALK [5]. The compound further had an IC50 with H2228 below 100 nM.
In the case of `COc1cc(P(C)(C)=O)ccc1-c1cnc(N)c(O[C@H](C)c2c(Cl)ccc(F)c2Cl)c1` [Example 24, 3-[(1R)-1-(2,6-dichloro-3-fluoro-phenyl)ethoxy]-5-(4-dimethylphosphoryl-2-methoxy-phenyl)pyridin-2-amine], the results for the “inhibition of tumor growth compared to the vehicle control” value in series [6] (20 mg/kg oral BID) and in [6] (60 mg/kg oral BID) were 79% and 93%, respectively. In [6] (14 days oral dosing at 60 mg/kg (BID)), the “reduced the tumor size” value is given as “approximately 80%”. The IC50 was below 100 nM with Karpas299; below 100 nM at ALK mutant R1275Q (footnote #: R1275Q, read-out: IC50 ALK Kinase (# mutant R1275Q)); below 50 nM at ALK mutant R1275Q (mobility shift, ATP 100 μM, read-out: IC50 ALK R1275Q); below 100 nM at ALK mutant L1196M (footnote #: L1196M, read-out: IC50 ALK Kinase (# mutant L1196M)); below 50 nM at ALK mutant L1196M (mobility shift, ATP 72 μM, read-out: IC50 ALK L1196M); below 50 nM against ALK [2]. Moreover, the concentration for half-maximal inhibition (IC50) in the series with SU-DHL-1 was below 100 nM; on NPM1-ALK (footnote #: NPM1-ALK, read-out: IC50 ALK Kinase (# NPM1-ALK)), below 100 nM; at NPM1-ALK (mobility shift, ATP 50 μM, read-out: IC50 NPM1-ALK), below 50 nM; against ALK [3] it was below 100 nM; at EML4-ALK (footnote #: EML4-ALK, read-out: IC50 ALK Kinase (# EML4-ALK)), below 100 nM; on EML4-ALK (mobility shift, ATP 50 μM, read-out: IC50 EML4-ALK) it was below 50 nM. Besides, the IC50 is below 50 nM against ALK [5]; below 100 nM on ALK mutant F1174L (footnote #: F1174L, read-out: IC50 ALK Kinase (# mutant F1174L)); below 50 nM on ALK mutant F1174L (mobility shift, ATP 50 μM, read-out: IC50 ALK F1174L); below 100 nM in the series with H2228; below 100 nM on ALK wild type (footnote #: ALK wild type, read-out: IC50 ALK Kinase (# ALK wild type)); below 50 nM at ALK wild type (mobility shift, ATP 50 μM, read-out: IC50 ALK wild type).
